In patent publication US10316017B2, “COT modulators and methods of use thereof” (Gilead Sciences, Inc., priority 2015, dated 2019):
Read-outs that look alike come from different tables or passages of the source.

Tests used:
[1] = system: TNFα production in LPS-stimulated human monocytes; assay: Cot Monocyte TNFα Cell Based Assay; details: Homo sapiens, Monocyte, read-out: EC50 TNF
Summary of the method: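 TNFα release quantified by two-antibody TR-FRET, normalised to unstimulated (0%) and LPS-stimulated (100%) wells. Cells got a 1 h compound exposure at 37° C in 0.5% DMSO before 4 h challenge with 50 pg/ml LPS, at 5,000 cells/well.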

[2] = target: T1, human Cot catalytic domain (30-397 amino acids) (Homo sapiens, UniProt P41279); assay: High Throughput Cot Biochemical Assay (KinEASE TR-FRET); details: read-out: IC50 HTRF
T1 construct: Purified recombinant human Cot catalytic domain (30-397 amino acids) was purchased from Cama Biosciences; purchased Cama Biosciences (so in the source)
T1 sequence (P41279 30-397): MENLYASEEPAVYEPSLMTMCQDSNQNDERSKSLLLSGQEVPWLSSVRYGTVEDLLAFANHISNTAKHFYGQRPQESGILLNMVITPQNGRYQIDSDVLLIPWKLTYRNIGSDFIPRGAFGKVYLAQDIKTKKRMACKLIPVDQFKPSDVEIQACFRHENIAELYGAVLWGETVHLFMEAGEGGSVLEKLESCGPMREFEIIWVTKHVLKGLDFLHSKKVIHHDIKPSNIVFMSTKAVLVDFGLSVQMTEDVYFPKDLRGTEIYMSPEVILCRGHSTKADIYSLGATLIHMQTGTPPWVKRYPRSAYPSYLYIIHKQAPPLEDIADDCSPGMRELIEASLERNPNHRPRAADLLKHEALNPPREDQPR
Summary of the method: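 TR-FRET (KinEASE) read-out: Eu-labelled phospho-specific antibody binds XL665-tagged STK3 peptide (1 μM) phosphorylated by 5 nM human Cot kinase domain (residues 30-397). Reaction at 400 μM ATP, pH 7.0 MOPS buffer with 10 mM MgOAc, 1 mM DTT and 0.1% DMSO.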

[3] = TNFα in LPS-stimulated human monocytes
[4] = Cot KinEASE TR-FRET (HTRF) biochemical assay, 400 μM ATP
[5] = Cot biochemical HTRF (KinEASE TR-FRET) assay
[6] = LPS-stimulated human monocytes, TNFα TR-FRET
[7] = Cot KinEASE TR-FRET, 400 μM ATP

EC50 [1, 3] [nM]	IC50 [2, 4] [nM]	IC50 [2, 5] [nM]	EC50 [1, 6] [nM]	IC50 [2, 7] [nM]	SMILES
72	5	–	–	–	[2H][C@@](Nc1cc(Cl)c2ncc(C#N)c(NC3CCOCC3(C)C)c2c1)(c1cn(C2CC2)nn1)c1ccccc1Cl (stereo partly drawn) [Example 141, 8-chloro-6-(((S)-(2-chlorophenyl)(1-cyclopropyl-1H-1,2,3-triazol-4-yl)methyl-d)amino)-4-((3,3-dimethyltetrahydro-2H-pyran-4-yl)amino) quinoline-3-carbonitrile]
45	3	–	–	–	[2H][C@](Nc1cc(C#N)c2ncc(C#N)c(N[C@H](CC)c3ccccc3)c2c1)(c1ccc(F)cc1)c1cn(C2CC2)nn1 [Example 285, 6-(((S)-(1-cyclopropyl-1H-1,2,3-triazol-4-yl)(4-fluorophenyl)methyl-d)amino)-4-(((R)-1-phenylpropyl)amino) quinoline-3,8-dicarbonitrile]
10600	–	379	–	–	CC(Nc1c(C#N)cnc2c(Cl)cc(N[C@@H](c3ccc(Cl)cc3)c3cn(C4CCN(C(C)(C)C)CC4)nn3)cc12)c1cccnc1 (stereo partly drawn) [Example 699, 6-(((S)-(1-(1-(tert-butyl)piperidin-4-yl)-1H-1,2,3-triazol-4-yl)(4-chlorophenyl)methyl)amino)-8-chloro-4-((1-(pyridin-3-yl)ethyl)amino)quinoline-3-carbonitrile]
2300	–	69	–	–	N#Cc1cnc2c(Cl)cc(N[C@@H](c3ccc(F)cc3)c3cn(CC4(F)COC4)nn3)cc2c1Nc1cnc(F)c(F)c1 [Example 405, (S)-8-chloro-4-((5,6-difluoropyridin-3-yl)amino)-6-(((1-((3-fluorooxetan-3-yl)methyl)-1H-1,2,3-triazol-4-yl)(4-fluorophenyl)methyl)amino) quinoline-3-carbonitrile]
–	–	–	307	9	CC(C)(C)CNc1c(C#N)cnc2c(C#N)cc(N[C@@H](c3cccc(C4(C#N)CC4)c3)c3cn(C4(C(F)(F)F)CC4)nn3)cc12 [Example 1128, (S)-6-(((3-(1-cyanocyclopropyl)phenyl)(1-(1-(trifluoromethyl)cyclopropyl)-1H-1,2,3-triazol-4-yl)methy;)amino)-4-(neopentylamino)quinoline-3,8-dicarbonitrile]
352	–	7	–	–	CC[C@@H](Nc1c(C#N)cnc2c(Cl)cc(N[C@@H](c3ccccc3)c3cn(C(C)C)nn3)cc12)c1ccccc1 [Example 592, 8-chloro-6-(((S)-(1-isopropyl-1H-1,2,3-triazol-4-yl)(phenyl)methyl)amino)-4-(((R)-1-phenylpropyl)amino)quinoline-3-carbonitrile]
1840	–	4	–	–	CC(=O)N(C)c1cccc([C@H](Nc2cc(Cl)c3ncc(C#N)c(Nc4cnc(F)c(F)c4)c3c2)c2c[nH]nn2)c1 [Example 496, (S)-N-(3-(((8-chloro-3-cyano-4-((5,6-difluoropyridin-3-yl)amino)quinolin-6-yl)amino)(1H-1,2,3-triazol-4-yl)methyl)phenyl)-N-methylacetamide]
–	–	–	15	2	Cc1c(C#N)cccc1[C@H](Nc1cc(C#N)c2ncc(C#N)c(NCC(C)(C)C)c2c1)c1cn(C2(CF)CC2)nn1 [Example 1147, (S)-6-(((3-cyano-2-methylphenyl)(1-(1-(fluoromethyl)cyclopropyl)-1H-1,2,3-triazo1-4-yl)methyl)amino)-4-(neopentylamino)quinoline-3,8-dicarbonitrile]
–	–	–	51	4	Cc1c(C#N)cccc1[C@H](Nc1cc(C#N)c2ncc(C#N)c(NCC(C)(C)C(F)(F)F)c2c1)c1cn(C2(C(F)F)CC2)nn1 [Example 1125, (S)-6-(((3-cyano-2-methylphenyl)(1-(1-(difluoromethyl)cyclopropyl)-1H-1,2,3-triazol-4-yl)methyl)amino)-4-((3,3,3-trifluoro-2,2-dimethylpropyl)amino)quinoline-3,8-dicarbonitrile]
3040	–	156	–	–	CC(C)(C)N1CCC(n2cc([C@@H](Nc3cc(Cl)c4ncc(C#N)c(NN5CCCCCC5)c4c3)c3ccccc3)nn2)CC1 [Example 604, (S)-4-(azepan-1-ylamino)-6-(((1-(1-(tert-butyl)piperidin-4-yl)-1H-1,2,3-triazol-4-yl)(phenyl)methyl)amino)-8-chloroquinoline-3-carbonitrile]
–	–	–	200	26	CC(C)(C)CNc1c(C#N)cnc2c(C#N)cc(N[C@H](c3cn(Cc4c(F)cccc4F)nn3)c3ccccc3Cl)cc12 [Example 1053, (S)-6-(((2-chlorophenyl)(1-(2,6-difluorobenzyl)-1H-1,2,3-triazol-4-yl)methyl)amino)-4-(neopentylamino)quinoline-3,8-dicarbonitrile]
–	–	–	≥ 1000	189	CC(C)(C)CNc1c(C#N)cnc2c(Br)cc(N[C@H](c3cn(Cc4c(F)cccc4F)nn3)c3ccccc3Cl)cc12 [Example 1052, (S)-8-bromo-6-(((2-chlorophenyl)(1-(2,6-difluorobenzyl)-1H-1,2,3-triazol-4-yl)methyl)amino)-4-(neopentylamino)quinoline-3-carbonitrile]
5150	–	404	–	–	CC(C)(C)N1CCC(n2cc([C@@H](Nc3cc(Cl)c4ncc(C#N)c(N[C@@H]5CCCOC5)c4c3)c3ccccc3)nn2)CC1 [Example 540, 6-(((S)-(1-(1-(tert-butyl)piperidin-4-yl)-1H-1,2,3-triazol-4-yl)(phenyl)methyl)amino)-8-chloro-4-(((R)-tetrahydro-2H-pyran-3-yl)amino) quinoline-3-carbonitrile]
78	4	–	–	–	CC(C)n1cc([C@@H](Nc2cc(Cl)c3ncc(C#N)c(N[C@H](CC#N)c4ccccc4)c3c2)c2ccc(F)cc2)nn1 [Example 305, 8-chloro-4-(((R)-2-cyano-1-phenylethyl)amino)-6-(((S)-(4-fluorophenyl)(1-isopropyl-1H-1,2,3-triazol-4-yl)methyl)amino)quinoline-3-carbonitrile]
–	–	–	≥ 1000	33	[2H][C@@](Nc1cc(C#N)c2ncc(C#N)c(NCC(C)(C)C)c2c1)(c1cn(-c2cccnc2)nn1)c1ccccc1Cl [Example 1004, (S)-6-(((2-chlorophenyl)(1-(pyridin-3-yl)-1H-1,2,3-triazol-4-yl)methyl-d)amino)-4-(neopentylamino)quinoline-3,8-dicarbonitrile]
91	–	5	–	–	CCN1CCC(n2cc([C@H](c3ccccc3)N(CC)c3cc(Cl)c4ncc(C#N)c(Nc5ccc(F)c(Cl)c5)c4c3)nn2)CC1 [Example 792, (S)-8-chloro-4-((3-chloro-4-fluorophenyl)amino)-6-(ethyl((1-(1-ethylpiperidin-4-yl)-1H-1,2,3-triazol-4-yl)(phenyl)methyl)amino) quinoline-3-carbonitrile]
1230	64	–	–	–	[2H][C@](Nc1cc(Cl)c2ncc(C#N)c(Nc3cnc(F)c(F)c3)c2c1)(c1ccc(F)cc1)c1cn(Cc2ccccc2)nn1 [Example 342, (S)-6-(((1-benzyl-1H-1,2,3-triazol-4-yl)(4-fluorophenyl)methyl-d)amino)-8-chloro-4-((5,6-difluoropyridin-3-yl)amino)quinoline-3-carbonitrile]
3180	–	189	–	–	CC(C)(C)N1CCC(n2cc(C(Nc3cc(Cl)c4ncc(C#N)c(NC5CCC(O)CC5)c4c3)c3ccccc3)nn2)CC1 [Example 597, 6-(((S)-(1-(1-(tert-butyl)piperidin-4-yl)-1H-1,2,3-triazol-4-yl)(phenyl)methyl)amino)-8-chloro-4-(((1r,4S)-4-hydroxycyclohexyl)amino) quinoline-3-carbonitrile]
77	8	–	–	–	[2H][C@](Nc1cc(Cl)c2ncc(C#N)c(NC3[C@H]4COC[C@@H]34)c2c1)(c1ccc(F)cc1)c1cn(C2CC2)nn1 (stereo partly drawn) [Example 142, 4-(((1R,5S)-3-oxabicyclo[3.1.0]hexan-6-yl)amino)-8-chloro-6-(((S)-(1-cyclopropyl-1H-1,2,3-triazol-4-yl)(4-fluorophenyl)methyl-d)amino)quinoline-3-carbonitrile]
–	–	–	23	2	Cc1c(C#N)cccc1[C@H](Nc1cc(C#N)c2ncc(C#N)c(NCC(C)(C)C)c2c1)c1cn(C2(C(F)F)CC2)nn1 [Example 1013, (S)-6-(((3-cyano-2-methylphenyl)(1-(1-(difluoromethyl)cyclopropyl)-1H-1,2,3-triazol-4-yl)methyl)amino)-4-(neopentylamino)quinoline-3,8-dicarbonitrile]
–	–	–	182	37	Cc1cc(F)ccc1[C@H](Nc1cc(Cl)c2ncc(C#N)c(NCC(C)(C)C)c2c1)c1cn(C2(C(F)F)CC2)nn1 [Example 1076, (S)-8-chloro-6-(((1-(1-(difluoromethyl)cyclopropyl)-1H-1,2,3-triazol-4-yl)(4-fluoro-2-methylphenyl)methyl)amino)-4-(neopentylamino)quinoline-3-carbonitrile]
1060	97	–	–	–	[2H][C@](Nc1cc(Cl)c2ncc(C#N)c(NC3CC(F)(F)C3)c2c1)(c1ccc(F)cc1)c1cn(C2CC2)nn1 [Example 204, (S)-8-chloro-6-(((1-cyclopropyl-1H-1,2,3-triazol-4-yl)(4-fluorophenyl)methyl-d)amino)-4-((3,3-difluorocyclobutyl)amino)quinoline-3-carbonitrile]
